Measured values as given in ChEMBL document CHEMBL3632491, “Synthesis and evaluation of aminopyridine derivatives as potential BACE1 inhibitors” (Bioorg Med Chem Lett, 2015).

Molecular target: Beta-secretase 1 (Homo sapiens) (UniProt P56817)
Test: Inhibition of recombinant BACE1 (unknown origin) using synthetic dodecapeptide with BACE1 cleavage sequence of Swedish type as substrate at 2 mM after 30 mins

Beta-secretase 1 (Homo sapiens), sequence (P56817 whole entry): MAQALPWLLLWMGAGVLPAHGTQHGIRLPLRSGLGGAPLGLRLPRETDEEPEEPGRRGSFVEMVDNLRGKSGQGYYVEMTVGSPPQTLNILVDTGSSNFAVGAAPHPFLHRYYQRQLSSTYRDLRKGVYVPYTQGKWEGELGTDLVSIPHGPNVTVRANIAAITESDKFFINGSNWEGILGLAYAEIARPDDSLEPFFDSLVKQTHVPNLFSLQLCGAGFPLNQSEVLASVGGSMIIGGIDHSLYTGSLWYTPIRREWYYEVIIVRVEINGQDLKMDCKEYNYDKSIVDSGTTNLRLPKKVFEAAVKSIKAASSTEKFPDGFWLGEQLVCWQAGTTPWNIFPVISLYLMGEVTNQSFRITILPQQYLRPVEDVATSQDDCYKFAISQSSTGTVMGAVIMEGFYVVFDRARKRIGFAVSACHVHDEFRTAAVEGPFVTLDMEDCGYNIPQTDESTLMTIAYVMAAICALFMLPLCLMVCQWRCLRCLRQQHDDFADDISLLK

SMILES	inhibition [%]
COc1cccc(C(O)CCCCc2ccc(NC(C)=O)nc2)c1 (stereo unspecified)	20
COc1cccc(C(O)CCCCc2cccc(NC(C)=O)n2)c1 (stereo unspecified)	56
COc1cccc(C(O)CCc2cccnc2NC(C)=O)c1 (stereo unspecified)	18
COc1cccc(CCCCc2cccc(NC(C)=O)n2)c1	21

Second part, the molecule after the results:

inhibition [%]	SMILES
20	COc1cccc(CCCCc2ccc(NC(C)=O)nc2)c1
19	COCOc1ccc(C(=O)Nc2ccc(CCCCC(O)c3cccc(OC)c3)cn2)cc1 (stereo unspecified)
